Test results: PubChem BioAssay (NCI)
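GI50 marks 50% less growth. The concentration for full growth arrest is given as TGI.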

Columns and labels:
Experiment in all cases: inhibition of tumour cell growth, NCI panel, 384-well format
ACHN renal = test system: ACHN renal
MDA-MB-231 breast = test system: MDA-MB-231 breast
HT29 colon = test system: HT29 colon
UACC-62 melanoma = test system: UACC-62 melanoma
SF-295 CNS = test system: SF-295 CNS
HOP-62 NSCLC = test system: HOP-62 NSCLC
PC-3 prostate = test system: PC-3 prostate
LOX IMVI melanoma = test system: LOX IMVI melanoma
OVCAR-5 ovarian = test system: OVCAR-5 ovarian
T-47D breast = test system: T-47D breast
CAKI-1 renal = test system: CAKI-1 renal
HCC-2998 colon = test system: HCC-2998 colon
HL-60(TB) leukemia = test system: HL-60(TB) leukemia
SN12C renal = test system: SN12C renal
RXF 393 renal = test system: RXF 393 renal
RPMI-8226 leukemia = test system: RPMI-8226 leukemia
A498 renal = test system: A498 renal
M14 melanoma = test system: M14 melanoma
SK-OV-3 ovarian = test system: SK-OV-3 ovarian
SF-268 CNS = test system: SF-268 CNS
SNB-75 CNS = test system: SNB-75 CNS
SR leukemia = test system: SR leukemia
MOLT-4 leukemia = test system: MOLT-4 leukemia
HCT-15 colon = test system: HCT-15 colon
OVCAR-3 ovarian = test system: OVCAR-3 ovarian
NCI-H322M lung = test system: NCI-H322M lung
HS 578T breast = test system: HS 578T breast
OVCAR-4 ovarian = test system: OVCAR-4 ovarian
MALME-3M melanoma = test system: MALME-3M melanoma
SF-539 CNS = test system: SF-539 CNS
COLO 205 colon = test system: COLO 205 colon
UACC-257 melanoma = test system: UACC-257 melanoma
TK-10 renal = test system: TK-10 renal
NCI/ADR-RES ovarian = test system: NCI/ADR-RES ovarian
NCI-H23 lung = test system: NCI-H23 lung
U251 glioblastoma = test system: U251 glioblastoma
KM12 colon = test system: KM12 colon
HCT-116 colon = test system: HCT-116 colon
A549 NSCLC = test system: A549 NSCLC
BT-549 breast = test system: BT-549 breast
OVCAR-8 ovarian = test system: OVCAR-8 ovarian
EKVX NSCLC = test system: EKVX NSCLC
NCI-H460 NSCLC = test system: NCI-H460 NSCLC
MCF7 breast = test system: MCF7 breast
NCI-H522 lung = test system: NCI-H522 lung
HOP-92 NSCLC = test system: HOP-92 NSCLC
SK-MEL-28 melanoma = test system: SK-MEL-28 melanoma
DU-145 prostate = test system: DU-145 prostate
IGROV1 ovarian = test system: IGROV1 ovarian
MDA-MB-435 melanoma = test system: MDA-MB-435 melanoma
SK-MEL-5 melanoma = test system: SK-MEL-5 melanoma
SNB-19 CNS = test system: SNB-19 CNS
NCI-H226 lung = test system: NCI-H226 lung
MDA-MB-468 breast = test system: MDA-MB-468 breast

**Q.** Which results are given for `FC(F)(F)c1cc(-c2ncn(/C=C\c3nnco3)n2)cc(C(F)(F)F)c1`?
**A.** GI50 (ACHN renal): 67.3 nM; TGI (ACHN renal): 8770 nM; GI50 (MDA-MB-231 breast): < 10 nM; TGI (MDA-MB-231 breast): 142 nM; GI50 (HT29 colon): < 10 nM; TGI (HT29 colon): 719 nM; GI50 (UACC-62 melanoma): 12.5 nM; TGI (UACC-62 melanoma): 242 nM; GI50 (SF-295 CNS): 16.9 nM; TGI (SF-295 CNS): 2300 nM; GI50 (HOP-62 NSCLC): 31.8 nM; TGI (HOP-62 NSCLC): 231 nM; GI50 (PC-3 prostate): < 10 nM; TGI (PC-3 prostate): 38.1 nM; GI50 (LOX IMVI melanoma): 42.3 nM; TGI (LOX IMVI melanoma): 206 nM; GI50 (OVCAR-5 ovarian): 64.2 nM; TGI (OVCAR-5 ovarian): 588 nM; GI50 (T-47D breast): 190 nM; TGI (T-47D breast): 6280 nM; GI50 (CAKI-1 renal): < 10 nM; TGI (CAKI-1 renal): 18900 nM; GI50 (HCC-2998 colon): 33.5 nM; TGI (HCC-2998 colon): 334 nM; GI50 (HL-60(TB) leukemia): < 10 nM; TGI (HL-60(TB) leukemia): 54.4 nM; GI50 (SN12C renal): 194 nM; TGI (SN12C renal): 1510 nM; GI50 (RXF 393 renal): < 10 nM; TGI (RXF 393 renal): 706 nM; GI50 (RPMI-8226 leukemia): < 10 nM; TGI (RPMI-8226 leukemia): < 10 nM; GI50 (A498 renal): < 10 nM; TGI (A498 renal): 82.2 nM; GI50 (M14 melanoma): 108 nM; TGI (M14 melanoma): 348 nM; GI50 (SK-OV-3 ovarian): < 10 nM; TGI (SK-OV-3 ovarian): 12500 nM; GI50 (SF-268 CNS): < 10 nM; TGI (SF-268 CNS): 558 nM; GI50 (SNB-75 CNS): < 10 nM; TGI (SNB-75 CNS): 113 nM; GI50 (SR leukemia): < 10 nM; TGI (SR leukemia): < 10 nM; GI50 (MOLT-4 leukemia): < 10 nM; TGI (MOLT-4 leukemia): < 10 nM; GI50 (HCT-15 colon): 34.4 nM; TGI (HCT-15 colon): 493 nM; GI50 (OVCAR-3 ovarian): < 10 nM; TGI (OVCAR-3 ovarian): 96.6 nM; GI50 (NCI-H322M lung): 50.6 nM; TGI (NCI-H322M lung): 2580 nM; GI50 (HS 578T breast): < 10 nM; TGI (HS 578T breast): 878 nM; GI50 (OVCAR-4 ovarian): 179 nM; TGI (OVCAR-4 ovarian): 662 nM; GI50 (MALME-3M melanoma): 123 nM; TGI (MALME-3M melanoma): 425 nM; GI50 (SF-539 CNS): < 10 nM; TGI (SF-539 CNS): 11.2 nM; GI50 (COLO 205 colon): < 10 nM; TGI (COLO 205 colon): 1980 nM; GI50 (UACC-257 melanoma): 239 nM; TGI (UACC-257 melanoma): 2470 nM; GI50 (TK-10 renal): 16.4 nM; TGI (TK-10 renal): 143 nM; GI50 (NCI/ADR-RES ovarian): < 10 nM; TGI (NCI/ADR-RES ovarian): 1330 nM; GI50 (NCI-H23 lung): < 10 nM; TGI (NCI-H23 lung): 1950 nM; GI50 (U251 glioblastoma): 19.5 nM; TGI (U251 glioblastoma): 190 nM; GI50 (KM12 colon): 139 nM; TGI (KM12 colon): 3050 nM; GI50 (HCT-116 colon): < 10 nM; TGI (HCT-116 colon): 350 nM; GI50 (A549 NSCLC): 10.1 nM; TGI (A549 NSCLC): 11300 nM; GI50 (BT-549 breast): < 10 nM; TGI (BT-549 breast): 23.8 nM; GI50 (OVCAR-8 ovarian): < 10 nM; TGI (OVCAR-8 ovarian): 1210 nM; GI50 (EKVX NSCLC): 184 nM; TGI (EKVX NSCLC): 9920 nM; GI50 (NCI-H460 NSCLC): < 10 nM; TGI (NCI-H460 NSCLC): 79.5 nM; GI50 (MCF7 breast): 19.1 nM; TGI (MCF7 breast): > 100000 nM; GI50 (NCI-H522 lung): < 10 nM; TGI (NCI-H522 lung): 118 nM; GI50 (HOP-92 NSCLC): 130 nM; TGI (HOP-92 NSCLC): 11000 nM; GI50 (SK-MEL-28 melanoma): 33.8 nM; TGI (SK-MEL-28 melanoma): 386 nM; GI50 (DU-145 prostate): 119 nM; TGI (DU-145 prostate): 514 nM; GI50 (IGROV1 ovarian): 104 nM; TGI (IGROV1 ovarian): 2890 nM; GI50 (MDA-MB-435 melanoma): 20.7 nM; TGI (MDA-MB-435 melanoma): 82.5 nM; GI50 (SK-MEL-5 melanoma): 73.6 nM; TGI (SK-MEL-5 melanoma): 252 nM; GI50 (SNB-19 CNS): 58.3 nM; TGI (SNB-19 CNS): 1130 nM; GI50 (NCI-H226 lung): < 10 nM; TGI (NCI-H226 lung): 17 nM; GI50 (MDA-MB-468 breast): 154 nM; TGI (MDA-MB-468 breast): 381 nM
